{"source": "patent US20250177396A1", "about": "“POLO-LIKE KINASE 4 (PLK4) INHIBITORS, PHARMACEUTICAL COMPOSITIONS, METHODS OF PREPARATION AND USES THEREOF” (Repare Therapeutics Inc., priority 2022, published 2025)"}
{"molecular_target": "T1, PLK4 (Homo sapiens, UniProt O00444)", "T1 construct": "expressed in transfected cells; host or cells: HEK293 T cells (ATCC CRL-3216)", "T1 sequence (O00444 1-970)": "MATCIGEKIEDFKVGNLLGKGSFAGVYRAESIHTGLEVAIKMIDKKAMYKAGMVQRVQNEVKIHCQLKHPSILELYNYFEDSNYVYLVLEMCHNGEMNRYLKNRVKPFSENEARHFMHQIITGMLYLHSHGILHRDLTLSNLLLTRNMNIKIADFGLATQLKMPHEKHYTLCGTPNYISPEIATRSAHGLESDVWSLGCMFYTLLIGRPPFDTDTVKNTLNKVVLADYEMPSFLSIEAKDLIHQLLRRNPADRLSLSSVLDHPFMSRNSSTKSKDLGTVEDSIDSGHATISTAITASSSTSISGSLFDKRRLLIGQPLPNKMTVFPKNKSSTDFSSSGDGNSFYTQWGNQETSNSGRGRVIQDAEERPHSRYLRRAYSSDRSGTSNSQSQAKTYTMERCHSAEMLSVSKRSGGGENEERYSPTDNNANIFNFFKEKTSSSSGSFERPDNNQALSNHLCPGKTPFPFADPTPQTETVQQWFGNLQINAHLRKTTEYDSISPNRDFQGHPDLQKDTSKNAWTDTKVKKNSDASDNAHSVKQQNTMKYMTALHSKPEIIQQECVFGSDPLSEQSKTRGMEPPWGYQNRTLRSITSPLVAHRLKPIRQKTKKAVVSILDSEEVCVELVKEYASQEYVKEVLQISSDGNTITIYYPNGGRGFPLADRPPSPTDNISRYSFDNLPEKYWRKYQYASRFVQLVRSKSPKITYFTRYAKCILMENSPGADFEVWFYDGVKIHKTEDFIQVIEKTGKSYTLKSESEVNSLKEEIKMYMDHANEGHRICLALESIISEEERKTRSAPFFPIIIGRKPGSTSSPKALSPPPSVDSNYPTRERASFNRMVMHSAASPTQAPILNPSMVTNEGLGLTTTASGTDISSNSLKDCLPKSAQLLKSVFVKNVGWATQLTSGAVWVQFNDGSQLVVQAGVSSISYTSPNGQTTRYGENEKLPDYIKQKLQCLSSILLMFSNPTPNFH", "test": "PLK4 NanoBRET target engagement assay", "assay_type": "binding", "conditions": "HEK293 T cells transfected with PLK4 NanoLuc fusion vector; K-5 tracer; 2 hrs incubation", "method": "To determine the affinity of Compounds described herein in the PLK4 NanoBRET target engagement assay, HEK293 T cells (ATCC Product Number CRL-3216) are first transfected with the PLK4 NanoLuc fusion vector DNA and Transfection carrier DNA using the Fugene HD Transfection reagent in Opti-MEM No Phenol Red buffer. After an overnight incubation in a 37° C./5% CO2 incubator, the transfected HEK293 T cells are trypsinized, counted, and resuspended in Opti-MEM No Phenol Red buffer at a concentration of 200000 cells/mL. White 96-well plates are then plated with 85 μL of cells (17000 cells/well) to which 5 μL of the 20×K-5 tracer solution diluted in tracer dilution buffer is added. Finally, 10 μL of the 10× compounds are added and the plates and then incubated in a 37° C./5% CO2 incubator for 2 hrs. After the incubation, a 50 uL 3× solution of the substrate/inhibitor mix is added to the cells. The plate is then transferred in the Envision plate reader where the Acceptor emission (610 nm) and the Donor emission (450 nm) are measured.\nThe IC50 of compounds is determined as follows: • 1. The ratio between the Acceptor emission (610 nm)/Donor emission (450 nm) is calculated. • 2. This ratio is then multiplied by 1000 to obtain the mBRET units (multiplying by 1000 is an arbitrary step that simply makes the data easier to interpret; it has no impact on the data set itself) • 3. The mBRET units are then used in Scigilian Analyze software (https://analyze.scigilian.io) to determine the IC50 value using a 4-parameter fit analysis.", "units": {"IC50": "µM"}}
{"compound": "COc1c(Nc2cc(C)[nH]n2)nc(Nc2ccc(S(C)(=O)=O)cc2F)nc1-c1cnn(C)c1", "note": "[Compound 1, N^2-(2-fluoro-4-(methylsulfonyl)phenyl)-5-methoxy-N^4-(5-methyl-1H-pyrazol-3-yl)-6-(1-methyl-1H-pyrazol-4-yl)pyrimidine-2,4-diamine]", "IC50": 0.22}
{"compound": "COc1c(Nc2cc(C)[nH]n2)nc(N(C)c2ccc(S(C)(=O)=O)cc2F)nc1-c1cnn(C)c1", "note": "[Compound 2, N^2-(2-fluoro-4-(methylsulfonyl)phenyl)-5-methoxy-N^2-methyl-N^4-(5-methyl-1H-pyrazol-3-yl)-6-(1-methyl-1H-pyrazol-4-yl)pyrimidine-2,4-diamine]", "IC50": 0.053}
{"compound": "CCN(c1nc(Nc2cc(C)[nH]n2)c(OC)c(-c2cnn(C)c2)n1)c1ccc(S(C)(=O)=O)cc1F", "note": "[Compound 3, N^2-ethyl-N^2-(2-fluoro-4-(methylsulfonyl)phenyl)-5-methoxy-N^4-(5-methyl-1H-pyrazol-3-yl)-6-(1-methyl-1H-pyrazol-4-yl)pyrimidine-2,4-diamine]", "IC50": 0.068}
{"compound": "COc1c(Nc2cc(C)[nH]n2)nc(N(Cc2ccc(F)cc2)c2ccc(S(C)(=O)=O)cc2F)nc1-c1cnn(C)c1", "note": "[Compound 4, N^2-(2-fluoro-4-(methylsulfonyl)phenyl)-N^2-(4-fluorobenzyl)-5-methoxy-N^4-(5-methyl-1H-pyrazol-3-yl)-6-(1-methyl-1H-pyrazol-4-yl)pyrimidine-2,4-diamine]", "IC50": 0.72}
{"compound": "COc1c(Nc2cc(C)[nH]n2)nc(N2CCc3cc(S(C)(=O)=O)ccc32)nc1-c1cnn(C)c1", "note": "[Compound 5, 5-methoxy-N-(5-methyl-1H-pyrazol-3-yl)-6-(1-methyl-1H-pyrazol-4-yl)-2-(5-(methylsulfonyl)indolin-1-yl)pyrimidin-4-amine]", "IC50": 1.1}
{"compound": "COc1c(Nc2cc(C)[nH]n2)nc(N(C)c2ccc(S(C)(=O)=O)cc2F)nc1-c1ccn(C)n1", "note": "[Compound 6, N^2-(2-fluoro-4-(methylsulfonyl)phenyl)-5-methoxy-N^2-methyl-6-(1-methyl-1H-pyrazol-3-yl)-N^4-(5-methyl-1H-pyrazol-3-yl)pyrimidine-2,4-diamine]", "IC50": 0.049}
{"compound": "COc1c(Nc2cc(C)[nH]n2)nc(N(C)c2ccc(S(=O)(=O)C3CC3)cc2F)nc1-c1cnn(C)c1", "note": "[Compound 7, N^2-(4-(cyclopropylsulfonyl)-2-fluorophenyl)-5-methoxy-N^2-methyl-N^4-(5-methyl-1H-pyrazol-3-yl)-6-(1-methyl-1H-pyrazol-4-yl)pyrimidine-2,4-diamine]", "IC50": 0.065}
{"compound": "COc1c(Nc2cc(C)[nH]n2)nc(N(C)c2c(F)cc(S(C)(=O)=O)cc2F)nc1-c1cnn(C)c1", "note": "[Compound 8, N^2-(2,6-difluoro-4-(methylsulfonyl)phenyl)-5-methoxy-N^2-methyl-N^4-(5-methyl-1H-pyrazol-3-yl)-6-(1-methyl-1H-pyrazol-4-yl)pyrimidine-2,4-diamine]", "IC50": 0.006}
{"compound": "COc1c(Nc2cc(C)[nH]n2)nc(Oc2ccc(S(C)(=O)=O)cc2F)nc1-c1cnn(C)c1", "note": "[Compound 9, 2-(2-fluoro-4-(methylsulfonyl)phenoxy)-5-methoxy-N-(5-methyl-1H-pyrazol-3-yl)-6-(1-methyl-1H-pyrazol-4-yl)pyrimidin-4-amine]", "IC50": 0.4}
{"compound": "Cc1cc(Nc2nc(N(C)c3ccc(S(C)(=O)=O)cc3F)nc(-c3ccn(C)n3)c2C2CC2)n[nH]1", "note": "[Compound 12, 5-cyclopropyl-N^2-(2-fluoro-4-(methylsulfonyl)phenyl)-N^2-methyl-6-(1-methyl-1H-pyrazol-3-yl)-N^4-(5-methyl-1H-pyrazol-3-yl)pyrimidine-2,4-diamine]", "IC50": 0.016}
{"compound": "Cc1cc(Nc2nc(N(C)c3c(F)cc(S(C)(=O)=O)cc3F)nc(-c3ccn(C)n3)c2C2CC2)n[nH]1", "note": "[Compound 13, 5-cyclopropyl-N^2-(2,6-difluoro-4-(methylsulfonyl)phenyl)-N^2-methyl-6-(1-methyl-1H-pyrazol-3-yl)-N^4-(5-methyl-1H-pyrazol-3-yl)pyrimidine-2,4-diamine]", "IC50": 0.005}
{"compound": "Cc1cc(Nc2nc(Nc3ccc(S(C)(=O)=O)cc3F)nc(-c3cn(C)cn3)c2C2CC2)n[nH]1", "note": "[Compound 16, 5-cyclopropyl-N^2-(2-fluoro-4-(methylsulfonyl)phenyl)-6-(1-methyl-1H-imidazol-4-yl)-N^4-(5-methyl-1H-pyrazol-3-yl)pyrimidine-2,4-diamine]", "IC50": 0.2}
{"compound": "Cc1cc(Nc2nc(N(C)c3ccc(S(C)(=O)=O)cc3F)nc(-c3cn(C)cn3)c2C2CC2)n[nH]1", "note": "[Compound 17, 5-cyclopropyl-N^2-(2-fluoro-4-(methylsulfonyl)phenyl)-N^2-methyl-6-(1-methyl-1H-imidazol-4-yl)-N^4-(5-methyl-1H-pyrazol-3-yl)pyrimidine-2,4-diamine]", "IC50": 0.02}
{"compound": "COc1c(-c2cnn(C)c2)cc(N(C)c2ccc(S(C)(=O)=O)cc2F)nc1Nc1cc(C)[nH]n1", "note": "[Compound 19, N^6-(2-fluoro-4-(methylsulfonyl)phenyl)-3-methoxy-N^6-methyl-N^2-(5-methyl-1H-pyrazol-3-yl)-4-(1-methyl-1H-pyrazol-4-yl)pyridine-2,6-diamine]", "IC50": 0.056}
{"compound": "Cc1cc(Nc2nc(N(C)c3ccc(S(C)(=O)=O)cc3F)cc(-c3cnn(C)c3)c2C2CC2)n[nH]1", "note": "[Compound 20, 3-cyclopropyl-N^6-(2-fluoro-4-(methylsulfonyl)phenyl)-N^6-methyl-N^2-(5-methyl-1H-pyrazol-3-yl)-4-(1-methyl-1H-pyrazol-4-yl)pyridine-2,6-diamine]", "IC50": 0.069}
{"compound": "COc1c(-c2cnn(C)c2)cc(Sc2ccc(S(C)(=O)=O)cc2F)nc1Nc1cc(C)[nH]n1", "note": "[Compound 21, 6-((2-fluoro-4-(methylsulfonyl)phenyl)thio)-3-methoxy-N-(5-methyl-1H-pyrazol-3-yl)-4-(1-methyl-1H-pyrazol-4-yl)pyridin-2-amine]", "IC50": 0.053}
{"compound": "COc1c(Nc2cc(C)[nH]n2)nc(Sc2ccc(S(C)(=O)=O)cc2F)c(C)c1-c1cnn(C)c1", "note": "[Compound 22, 6-((2-fluoro-4-(methylsulfonyl)phenyl)thio)-3-methoxy-5-methyl-N-(5-methyl-1H-pyrazol-3-yl)-4-(1-methyl-1H-pyrazol-4-yl)pyridin-2-amine]", "IC50": 0.096}
{"compound": "COc1c(Nc2cc(C)[nH]n2)nc(Nc2ccc(S(C)(=O)=O)cc2F)c(C)c1-c1cnn(C)c1", "note": "[Compound 23, N^2-(2-fluoro-4-(methylsulfonyl)phenyl)-5-methoxy-3-methyl-N^6-(5-methyl-1H-pyrazol-3-yl)-4-(1-methyl-1H-pyrazol-4-yl)pyridine-2,6-diamine]", "IC50": 0.21}
{"compound": "COc1c(Nc2cc(C)[nH]n2)nc(N(C)c2ccc(S(C)(=O)=O)cc2F)c(F)c1-c1cnn(C)c1", "note": "[Compound 24, 3-fluoro-N^2-(2-fluoro-4-(methylsulfonyl)phenyl)-5-methoxy-N^2-methyl-N^6-(5-methyl-1H-pyrazol-3-yl)-4-(1-methyl-1H-pyrazol-4-yl)pyridine-2,6-diamine]", "IC50": 1.1}
{"compound": "[2H]C([2H])([2H])N(C([2H])([2H])[2H])S(=O)(=O)c1ccc(N(C)c2nc(Nc3cc(C)[nH]n3)c(C3CC3)c(-c3cnn(C)c3)n2)c(F)c1", "note": "[Compound 26]", "IC50": 0.005}
{"compound": "COc1c(Nc2cc(C)[nH]n2)nc(Oc2c(F)cc(Br)cc2F)nc1-c1cnn(C)c1", "note": "[Compound 29]", "IC50": 1.3}
{"compound": "COc1c(Nc2cc(C)[nH]n2)nc(Oc2ccc(N(C)S(C)(=O)=O)cc2)nc1-c1cnn(C)c1", "note": "[Compound 31]", "IC50": 0.62}
{"compound": "COc1c(Nc2cc(C)[nH]n2)nc(Oc2ccc(NS(C)(=O)=O)cc2)nc1-c1cnn(C)c1", "note": "[Compound 32]", "IC50": 2.8}
{"compound": "COc1c(Nc2cc(C)[nH]n2)nc(Oc2ccc(S(C)(=O)=O)cc2Br)nc1-c1cnn(C)c1", "note": "[Compound 33]", "IC50": 1.1}
